# Test results from the supplement of paper PMC10307832.
# How the values were obtained:
# Test in all cases: relative viability (nuclei count vs DMSO), 5 days (fraction); higher = more cells survive
# 201T = system: 201T
# In short: (§1)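 Lung cancer cell lines, seeded in 1536-well plates, were treated the following day by pin tool with a single drug or with five library-drug doses (not always all listed) in √10 steps on top of a fixed anchor-drug dose. Cells were fixed and nuclei stained in one step after 5 days, and nuclei were counted. Relative viability is the nuclei count for treated wells divided by that for vehicle wells, reported as medians of duplicate plates.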
# A-427 = system: A-427
# In short: as §1
# COR-L23 = system: COR-L23
# In short: as §1
# H3255 = system: H3255
# In short: as §1
# LCLC-103H = system: LCLC-103H
# In short: as §1
# LCLC-97TM1 = system: LCLC-97TM1
# In short: as §1
# LK-2 = system: LK-2
# In short: as §1
# LU99A = system: LU99A
# In short: as §1
# NCI-H1650 = system: NCI-H1650
# In short: as §1
# NCI-H1651 = system: NCI-H1651
# In short: as §1
# NCI-H1793 = system: NCI-H1793
# In short: as §1
# NCI-H1944 = system: NCI-H1944
# In short: as §1
# NCI-H2347 = system: NCI-H2347
# In short: as §1
# NCI-H23 = system: NCI-H23
# In short: as §1
# NCI-H460 = system: NCI-H460
# In short: as §1
# NCI-H650 = system: NCI-H650
# In short: as §1
# NCI-H727 = system: NCI-H727
# In short: as §1
# NCI-H838 = system: NCI-H838
# In short: as §1
# PC-14 = system: PC-14
# In short: as §1
# PC-3 [JPC-3] = system: PC-3 [JPC-3]
# In short: as §1
# RERF-LC-KJ = system: RERF-LC-KJ
# In short: as §1
# SW 1573 = system: SW 1573
# In short: as §1
# SW 900 = system: SW 900
# In short: as §1
structure (smiles),measurement,setting,value
C[C@@H]1CN(CC(=O)Nc2ccc3c(c2)Cc2cccc(-c4cc(=O)cc(N5CCOCC5)o4)c2S3)C[C@H](C)O1 + Cc1cc(Nc2cc(N3CCN(C)CC3)nc(Sc3ccc(NC(=O)C4CC4)cc3)n2)n[nH]1 [Tozasertib] (partner 0.1 µM),relative viability,201T; first compound 0.04 µM,0.93
same,relative viability,201T; first compound 0.1265 µM,0.882
same,relative viability,201T; first compound 0.4 µM,0.909
same,relative viability,201T; first compound 4 µM,0.922
same,relative viability,A-427; first compound 0.04 µM,0.176
same,relative viability,A-427; first compound 0.1265 µM,0.214
same,relative viability,A-427; first compound 0.4 µM,0.214
same,relative viability,A-427; first compound 4 µM,0.205
same,relative viability,COR-L23; first compound 0.04 µM,0.199
same,relative viability,COR-L23; first compound 0.1265 µM,0.218
same,relative viability,COR-L23; first compound 0.4 µM,0.159
same,relative viability,COR-L23; first compound 4 µM,0.137
same,relative viability,H3255; first compound 0.04 µM,0.694
same,relative viability,H3255; first compound 0.1265 µM,0.606
same,relative viability,H3255; first compound 0.4 µM,0.625
same,relative viability,H3255; first compound 4 µM,0.492
same,relative viability,LCLC-103H; first compound 0.04 µM,0.532
same,relative viability,LCLC-103H; first compound 0.1265 µM,0.498
same,relative viability,LCLC-103H; first compound 0.4 µM,0.544
same,relative viability,LCLC-103H; first compound 4 µM,0.417
same,relative viability,LCLC-97TM1; first compound 0.04 µM,0.27
same,relative viability,LCLC-97TM1; first compound 0.1265 µM,0.226
same,relative viability,LCLC-97TM1; first compound 0.4 µM,0.214
same,relative viability,LCLC-97TM1; first compound 4 µM,0.207
same,relative viability,LK-2; first compound 0.1265 µM,0.174
same,relative viability,LK-2; first compound 0.4 µM,0.185
same,relative viability,LK-2; first compound 4 µM,0.17
same,relative viability,LU99A; first compound 0.04 µM,0.243
same,relative viability,LU99A; first compound 0.1265 µM,0.257
same,relative viability,LU99A; first compound 0.4 µM,0.246
same,relative viability,LU99A; first compound 4 µM,0.251
same,relative viability,NCI-H1650; first compound 0.04 µM,0.433
same,relative viability,NCI-H1650; first compound 0.1265 µM,0.375
same,relative viability,NCI-H1650; first compound 0.4 µM,0.344
same,relative viability,NCI-H1650; first compound 4 µM,0.239
same,relative viability,NCI-H1651; first compound 0.04 µM,0.683
same,relative viability,NCI-H1651; first compound 0.1265 µM,0.609
same,relative viability,NCI-H1651; first compound 0.4 µM,0.602
same,relative viability,NCI-H1651; first compound 4 µM,0.535
same,relative viability,NCI-H1793; first compound 0.04 µM,0.279
same,relative viability,NCI-H1793; first compound 0.1265 µM,0.313
same,relative viability,NCI-H1793; first compound 0.4 µM,0.306
same,relative viability,NCI-H1793; first compound 4 µM,0.17
same,relative viability,NCI-H1944; first compound 0.04 µM,0.273
same,relative viability,NCI-H1944; first compound 0.1265 µM,0.255
same,relative viability,NCI-H1944; first compound 0.4 µM,0.263
same,relative viability,NCI-H1944; first compound 4 µM,0.23
same,relative viability,NCI-H2347; first compound 0.04 µM,0.598
same,relative viability,NCI-H2347; first compound 0.1265 µM,0.646
same,relative viability,NCI-H2347; first compound 0.4 µM,0.535
same,relative viability,NCI-H2347; first compound 4 µM,0.448
same,relative viability,NCI-H23; first compound 0.04 µM,0.362
same,relative viability,NCI-H23; first compound 0.1265 µM,0.308
same,relative viability,NCI-H23; first compound 0.4 µM,0.348
same,relative viability,NCI-H23; first compound 4 µM,0.198
same,relative viability,NCI-H460; first compound 0.04 µM,0.393
same,relative viability,NCI-H460; first compound 0.1265 µM,0.397
same,relative viability,NCI-H460; first compound 0.4 µM,0.485
same,relative viability,NCI-H460; first compound 4 µM,0.0949
same,relative viability,NCI-H650; first compound 0.04 µM,0.655
same,relative viability,NCI-H650; first compound 0.1265 µM,0.811
same,relative viability,NCI-H650; first compound 0.4 µM,0.698
same,relative viability,NCI-H650; first compound 4 µM,0.581
same,relative viability,NCI-H727; first compound 0.04 µM,0.797
same,relative viability,NCI-H727; first compound 0.1265 µM,0.736
same,relative viability,NCI-H727; first compound 0.4 µM,0.572
same,relative viability,NCI-H727; first compound 4 µM,0.57
same,relative viability,NCI-H838; first compound 0.04 µM,0.255
same,relative viability,NCI-H838; first compound 0.1265 µM,0.279
same,relative viability,NCI-H838; first compound 0.4 µM,0.28
same,relative viability,NCI-H838; first compound 4 µM,0.202
same,relative viability,PC-14; first compound 0.04 µM,0.451
same,relative viability,PC-14; first compound 0.1265 µM,0.562
same,relative viability,PC-14; first compound 0.4 µM,0.579
same,relative viability,PC-14; first compound 4 µM,0.482
same,relative viability,PC-3 [JPC-3]; first compound 0.04 µM,0.883
same,relative viability,PC-3 [JPC-3]; first compound 0.1265 µM,0.862
same,relative viability,PC-3 [JPC-3]; first compound 0.4 µM,0.871
same,relative viability,PC-3 [JPC-3]; first compound 4 µM,0.74
same,relative viability,RERF-LC-KJ; first compound 0.04 µM,0.545
same,relative viability,RERF-LC-KJ; first compound 0.1265 µM,0.48
same,relative viability,RERF-LC-KJ; first compound 0.4 µM,0.496
same,relative viability,RERF-LC-KJ; first compound 4 µM,0.351
same,relative viability,SW 1573; first compound 0.04 µM,0.224
same,relative viability,SW 1573; first compound 0.1265 µM,0.18
same,relative viability,SW 1573; first compound 0.4 µM,0.23
same,relative viability,SW 1573; first compound 4 µM,0.231
same,relative viability,SW 900; first compound 0.04 µM,0.463
same,relative viability,SW 900; first compound 0.1265 µM,0.579
same,relative viability,SW 900; first compound 0.4 µM,0.476
same,relative viability,SW 900; first compound 4 µM,0.335
